Data on five molecules can be found in the NIST ThermoML archive (doi:10.1021/je301370s).

This series is described as follows: xn = mol fraction of the nth substance listed. To be noted: 101 kPa, Liquid, Taylor dispersion method, x1 = 0.

On to `NCCCCCCC(=O)O` [7-aminoheptanoic acid] + O, for which the binary diffusion coefficient (298.2 K) was 6.88e-10 m2/s; the binary diffusion coefficient (303.2 K) was 7.86e-10 m2/s; the binary diffusion coefficient (313.2 K) was 1e-09 m2/s; the binary diffusion coefficient (323.2 K) came to 1.23e-09 m2/s; the binary diffusion coefficient (333.2 K) stood at 1.48e-09 m2/s.

Consider `NCCCCC(=O)O` [5-aminovaleric acid] + O, for which the binary diffusion coefficient reads like this: (298.2 K) 7.76e-10 m2/s; (303.2 K) 8.73e-10 m2/s; (313.2 K) 1.12e-09 m2/s; (323.2 K) 1.39e-09 m2/s; (333.2 K) 1.66e-09 m2/s.

Regarding `NCCCCCC(=O)O` [6-aminohexanoic acid] + O, the binary diffusion coefficient is 7.28e-10 m2/s (298.2 K); 8.25e-10 m2/s (303.2 K); 1.05e-09 m2/s (313.2 K); 1.29e-09 m2/s (323.2 K); 1.57e-09 m2/s (333.2 K).

Regarding `NCCCC(=O)O` [4-aminobutanoic acid] + O, the binary diffusion coefficient is, setting by setting: (298.2 K) 8.38e-10 m2/s; (303.2 K) 9.54e-10 m2/s; (313.2 K) 1.2e-09 m2/s; (323.2 K) 1.49e-09 m2/s; (333.2 K) 1.79e-09 m2/s.

Take `NCCC(=O)O` [3-aminopropanoic acid] + O: the binary diffusion coefficient is 9.37e-10 m2/s (298.2 K); 1.06e-09 m2/s (303.2 K); 1.35e-09 m2/s (313.2 K); 1.64e-09 m2/s (323.2 K); 1.97e-09 m2/s (333.2 K).
